# Experimental data reported in EP3771715A1, “CRYSTALLINE FORMS OF BARICITINIB” (Zaklady Farmaceutyczne "Polpharma" S.A., priority 2019, dated 2021).
# Experiments:
# Type in all cases: physicochemical
# [1] = Chemical stability under accelerated ICH storage conditions (HPLC); conditions: for Impurities (HPLC % a/a) RRT 1.30 / Impurities (HPLC % a/a) RRT 1.41 / Impurities (HPLC % a/a) RRT 1.40 / Impurities (HPLC % a/a) RRT 1.70 / Impurities (HPLC % a/a) RRT 2.20: 40°C, 75 ± 5% RH
# Procedure: Purity and assay analysis was carried out using High Performance Liquid Chromatograph equipped with PDA detector. The analysis was conducted using Octadecyl silane (ODA or C18) chemically bonded to porous silica column, at a temperature of 40°C. The mobile phases was acetonitrile and 0.1% (v/v) ortho-phosphoric acid in water used in gradient.
# Chemical stability study of the new crystalline forms of baricitinib i.e. PPH form I and PPH form II was performed under accelerated ICH storage conditions (40°C, 75±5% relative humidity). Samples were taken periodically (0 (start), after 1, 2, and 4 weeks) and analyzed by HPLC. Table 4 : HPLC purity of PPH form I of baricitinib
# [2] = Hygroscopicity (statement, no method described)
# [3] = Crystalline stability against humidity (XRPD); conditions: no conversion into another crystalline form by XRPD
# Procedure: Powder X-ray diffraction was performed with a Rigaku MiniFlex 600 diffractometer with Bragg-Brentano geometry CuKa radiation and D/teX Ultra Detector. The powder X-ray diffraction patterns were recorded at a tube voltage of 40kV and a tube current of 15 mA, applying a step size of 0.01° and speed 6.0°/min with the angular range 3-36° at ambient conditions.
# A test for crystalline stability against humidity can be performed as follows: The sample is exposed to a relative humidity of 75% (±5%) at 40°C (±2°C) for 4 weeks. The expression "crystalline stability" means that no conversion into another crystalline form occurs, as determined by XRPD.
# The equilibrium relative humidity of a sample is measured by determining the relative humidity in % in the air above a test sample, after establishment of a humidity equilibrium in a closed/open system at a constant temperature.
# A test for crystalline stability against humidity has been performed as follows: The sample is exposed to a relative humidity of 75% (±5%) at 40°C(±2°C) for 4 weeks. The expression "crystalline stability" means that no conversion into another crystalline form occurs, as determined by XRPD.
smiles,measurement,setting,value
"CCS(=O)(=O)N1CC(CC#N)(n2cc(-c3ncnc4[nH]ccc34)cn2)C1 [PPH form I, {1-(Ethylsulfonyl)-3-[4-(7H-pyrrolo[2,3-d]pyrimidin-4-yl)-1H-pyrazol-1-yl]-3-azetidinyl}acetonitrile]",Impurities (HPLC % a/a) RRT 1.30,[1]; week 0,0.01 % a/a
same,Impurities (HPLC % a/a) RRT 1.41,[1]; week 0,0.03 % a/a
same,Impurities (HPLC % a/a) RRT 1.30,[1]; week 1,0.01 % a/a
same,Impurities (HPLC % a/a) RRT 1.41,[1]; week 1,0.03 % a/a
same,Impurities (HPLC % a/a) RRT 1.30,[1]; week 2,0.01 % a/a
same,Impurities (HPLC % a/a) RRT 1.41,[1]; week 2,0.03 % a/a
same,Impurities (HPLC % a/a) RRT 1.30,[1]; week 4,0.01 % a/a
same,Impurities (HPLC % a/a) RRT 1.41,[1]; week 4,0.03 % a/a
same,Chemical stability (HPLC results),"[1]; during 0, 1, 2 and 4 weeks at 40°C, 75 ± 5% relative humidity",stable
same,Hygroscopicity,[2],substantially non-hygroscopic
same,"Crystalline stability study 40°C, 75 ± 5% RH After 1 week",[3]; after 1 week,Stable
same,"Crystalline stability study 40°C, 75 ± 5% RH After 4 weeks",[3],Stable
"CCS(=O)(=O)N1CC(CC#N)(n2cc(-c3ncnc4[nH]ccc34)cn2)C1 [PPH form II, {1-(Ethylsulfonyl)-3-[4-(7H-pyrrolo[2,3-d]pyrimidin-4-yl)-1H-pyrazol-1-yl]-3-azetidinyl}acetonitrile]",Impurities (HPLC % a/a) RRT 1.40,[1]; week 0,0.03 % a/a
same,Impurities (HPLC % a/a) RRT 1.70,[1]; week 0,0.17 % a/a
same,Impurities (HPLC % a/a) RRT 2.20,[1]; week 0,0.15 % a/a
same,Impurities (HPLC % a/a) RRT 1.40,[1]; week 1,0.03 % a/a
same,Impurities (HPLC % a/a) RRT 1.70,[1]; week 1,0.17 % a/a
same,Impurities (HPLC % a/a) RRT 2.20,[1]; week 1,0.15 % a/a
same,Impurities (HPLC % a/a) RRT 1.40,[1]; week 2,0.03 % a/a
same,Impurities (HPLC % a/a) RRT 1.70,[1]; week 2,0.17 % a/a
same,Impurities (HPLC % a/a) RRT 2.20,[1]; week 2,0.15 % a/a
same,Impurities (HPLC % a/a) RRT 1.40,[1]; week 4,0.03 % a/a
same,Impurities (HPLC % a/a) RRT 1.70,[1]; week 4,0.17 % a/a
same,Impurities (HPLC % a/a) RRT 2.20,[1]; week 4,0.15 % a/a
same,"Crystalline stability study 40°C, 75 ± 5% RH After 4 weeks",[3]; listed as PPH form II (Example 4),Stable
same,"Crystalline stability study 40°C, 75 ± 5% RH After 4 weeks",[3]; listed as PPH form II of baricitinib,stable
